Among the data in patent publication US12421193B2, “GPR52 modulators and methods of use” (Neurocrine Biosciences, Inc., priority 2020, dated 2025) are EC50 values, retold here.

pEC50: −log10 of the molar value. Where a name gives a salt, the structure may show the parent alone.

T1 sequence (Q9Y2T5 whole entry): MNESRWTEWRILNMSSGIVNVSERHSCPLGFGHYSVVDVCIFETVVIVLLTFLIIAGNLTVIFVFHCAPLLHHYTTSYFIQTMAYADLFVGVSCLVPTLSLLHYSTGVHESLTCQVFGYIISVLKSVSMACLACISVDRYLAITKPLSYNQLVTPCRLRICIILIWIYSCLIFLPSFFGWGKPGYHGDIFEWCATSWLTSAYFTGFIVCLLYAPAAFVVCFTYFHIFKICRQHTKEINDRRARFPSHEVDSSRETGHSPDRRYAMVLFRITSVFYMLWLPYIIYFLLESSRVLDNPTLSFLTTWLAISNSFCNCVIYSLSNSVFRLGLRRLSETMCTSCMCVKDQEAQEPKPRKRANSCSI

This test addresses T1, recombinant human GPR52 (Homo sapiens, UniProt Q9Y2T5).
T1 construct: expressed in transfected cells
The test is described as follows: TR-FRET cAMP assay (LANCE Ultra cAMP Kit), GPR52 activity. It is filed as cell-based. Particulars: Flp-In-CHO cells stably expressing recombinant human GPR52; cAMP production, normalized to the positive control. As for the experimental part:
TR-FRET cAMP assays were performed using commercially available assay kits (LANCE™ Ultra cAMP Kit). Controls and compounds were solubilized in DMSO using ½ log dilution to generate duplicate 10-point dose response curves in 384-well polypropylene compound plates. Sixty nanoliters of the diluted compounds were transferred into 384-well NBS assay plates and further diluted to 1× with the addition of 2000 cells per well. Flp-In™—CHO cells that stably express recombinant human GPR52.
Cells were harvested with cell stripper and resuspended in Stimulation Buffer (5 mM HEPES, 0.1% bovine serum albumin (BSA), 0.5 mM IBMX, pH 7.4). After thirty minutes incubation at room temperature, detection reagents were added to each well. Plates were then incubated for 30 minutes at room temperature. The LANCE™ Ultra cAMP assay uses time-resolved fluorescence resonance energy transfer (TR-FRET) to detect cAMVP production; this signal was quantified using a Pherastar multi-mode plate reader.
Dose-response curves were generated from the fluorescence counts normalized to the positive control. E EC50 values were obtained using a nonlinear regression curve-fitting program.
(TR-FRET usually uses a lanthanide donor and a delayed reading to cut background.)
For orientation: pEC50 means the EC50 on a negative log10 scale, so that one unit is a factor of ten. In the case of `Cc1cc(-c2cc(COc3ccccc3)ccn2)ccc1C(N)=O` [Example 25, 4-[4-(phenoxymethyl)pyridin-2-yl]-2-methylbenzamide], the pEC50 was 6.00 to 7.00.
The figure for `COc1cccc(OCc2ccnc(-c3ccc(C(N)=O)c(C)c3)c2)c1` [Example 39, 4-[4-(3-methoxyphenoxymethyl)pyridin-2-yl]-2-methylbenzamide] is 6.00 to 7.00; for `Cc1ccccc1OCc1ccnc(-c2ccc(C(N)=O)c(C)c2)c1` [Example 46, 4-[4-(2-methylphenoxymethyl)pyridin-2-yl]-2-methylbenzamide] it is 6.00 to 7.00.
For `CC(=O)c1ccc(OCc2ccnc(-c3ccc(C(N)=O)c(C)c3)c2)cc1F` [Example 60, 4-[4-(4-acetyl-3-fluorophenoxymethyl)pyridin-2-yl]-2-methylbenzamide] the value was more than 7.60.
For `Cc1cc(-c2cc(COc3ccc(F)cc3)ccn2)ccc1C(N)=O` [Example 12, 4-[4-(4-fluorophenoxymethyl)pyridin-2-yl]-2-methylbenzamide], the negative logarithm of the EC50 (pEC50) was 7.00 to 7.60.
The figure for `COc1ccc(OCc2ccnc(-c3ccc(C(N)=O)c(C)c3)c2)cc1F` [Example 62, 4-[4-(3-fluoro-4-methoxyphenoxymethyl)pyridin-2-yl]-2-methylbenzamide] is more than 7.60; for `COc1cc(Cl)cc(OCc2ccnc(-c3ccc(C(N)=O)c(C)c3)c2)c1` [Example 24, 4-[4-(3-chloro-5-methoxyphenoxymethyl)pyridin-2-yl]-2-methylbenzamide] it is 7.00 to 7.60.
For `Cc1cc(-c2cccc(COc3cccc(C(F)(F)F)c3)n2)ccc1C(N)=O` [Example 102, 4-{6-[3-(trifluoromethyl)phenoxymethyl]pyridin-2-yl}-2-methylbenzamide] the value was less than 6.00; for `Cc1cc(-c2cncc(COc3ccc(C#N)c(F)c3)c2)ccc1C(N)=O` [Example 91, 4-[5-(4-cyano-3-fluorophenoxymethyl)pyridin-3-yl]-2-methylbenzamide], less than 6.00; for `Cc1cc(-c2cc(COc3ccc4nn(C)cc4c3)ccn2)ccc1C(N)=O` [Example 72, 4-(4-{[(2-methyl-2H-indazol-5-yl)oxy]methyl}pyridin-2-yl)-2-methyl benzamide], 6.00 to 7.00.
The figure for `COc1ccc(OCc2ccnc(-c3ccc(C(N)=O)c(C)c3)c2)c2ccccc12` [Example 19, 4-(4-{[(4-methoxynaphthalen-1-yl)oxy]methyl}pyridin-2-yl)-2-methylbenzamide] is 6.00 to 7.00.
Take `CCC(=O)c1ccc(OCc2ccnc(-c3ccc(C(N)=O)c(C)c3)c2)cc1` [Example 59, 4-[4-(4-propanoylphenoxymethyl)pyridin-2-yl]2-methylbenzamide]: the pEC50 is 6.00 to 7.00.
For `Cc1cc(-c2cc(COc3cccc(C(F)(F)F)c3)ccn2)ccc1C(N)=O` [Example 2, 4-{4-[3-(trifluoromethyl)phenoxymethyl]pyridin-2-yl}-2-methyl benzamide] the value was more than 7.60; for `CC(=O)c1ccc(OCc2ccnc(-c3ccc(C(N)=O)c(C)c3)c2)cc1C` [Example 13, 4-[4-(4-acetyl-3-methylphenoxymethyl)pyridin-2-yl]-2-methylbenzamide], more than 7.60; for `Cc1cc(-c2cncc(COc3ccc(C(F)(F)F)cc3)c2)ccc1C(N)=O` [Example 90, 4-{5-[4-(trifluoromethyl)phenoxymethyl]pyridin-3-yl}-2-methylbenzamide], 7.00 to 7.60.
As for `COc1cc(OCc2ccnc(-c3ccc(C(N)=O)c(C)c3)c2)ccc1C#N` [Example 55, 4-[4-(4-cyano-3-methoxyphenoxymethyl)pyridin-2-yl]-2-methylbenzamide], the negative-log EC50 (pEC50) is more than 7.60.
For `Cc1cc(-c2ccnc(COc3ccc4c(cnn4C)c3)c2)ccc1C(N)=O` [Example 87, 4-(2-{[(1-methyl-1H-indazol-5-yl)oxy]methyl}pyridin-4-yl)-2-methyl-benzamide] the value was 6.00 to 7.00; for `CCCc1ccccc1OCc1ccnc(-c2ccc(C(N)=O)c(C)c2)c1` [Example 23, 4-[4-(2-propylphenoxymethyl)pyridin-2-yl]-2-methyl benzamide], more than 7.60; for `Cc1cc(-c2cc(COc3ccc4c(c3)OCC4)ccn2)ccc1C(N)=O` [Example 63, 4-{4-[(2,3-dihydro-1-benzofuran-6-yloxy)methyl]pyridin-2-yl}-2-methylbenzamide], 6.00 to 7.00.
For `Cc1cc(-c2ccnc(COc3ccc(C#N)c(F)c3)n2)ccc1C(N)=O` [Example 103, 4-[2-(4-cyano-3-fluorophenoxymethyl)pyrimidin-4-yl]-2-methylbenzamide] the value was 6.00 to 7.00; for `Cc1cc(-c2cc(COc3ccc(C#N)c(F)c3F)ccn2)ccc1C(N)=O` [Example 9, 4-[4-(4-cyano-2,3-difluorophenoxymethyl)pyridin-2-yl]-2-methylbenzamide], 6.00 to 7.00.
The figure for `Cc1ccc(OCc2ccnc(-c3ccc(C(N)=O)c(C)c3)c2)c(Cl)c1` [Example 44, 4-[4-(2-chloro-4-methylphenoxymethyl)pyridin-2-yl]-2-methylbenzamide] is more than 7.60; for `Cc1cc(-c2ccnc(COc3ccc(C(F)(F)F)cc3)c2)ccc1C(N)=O` [Example 81, 4-{2-[4-(trifluoromethyl)phenoxymethyl]pyridin-4-yl}-2-methylbenzamide hydrochloride] it is more than 7.60.
Regarding `Cc1cc(-c2cc(COc3ccc(C#N)c(F)c3)ccn2)ccc1C(=O)NCCN(C)C` [Example 80, 4-[4-(4-cyano-3-fluorophenoxymethyl)pyridin-2-yl]-N-[2-(dimethylamino)ethyl]-2-methylbenzamide], the pEC50 was more than 7.60.
For `Cc1cc(OCc2ccnc(-c3ccc(C(N)=O)c(C)c3)c2)ccc1F` [Example 27, 4-[4-(4-fluoro-3-methylphenoxymethyl)pyridin-2-yl]-2-methylbenzamide] the value was 6.00 to 7.00.
The figure for `NC(=O)c1ccc(-c2cc(COc3ccc(C(F)(F)F)cc3)ccn2)cc1Cl` [Example 76, 4-{4-[4-(trifluoromethyl)phenoxymethyl]pyridin-2-yl}2-chlorobenzamide] is more than 7.60.
For `Cc1cc(-c2cc(COc3ccc(Cl)c(C#N)c3)ccn2)ccc1C(N)=O` [Example 49, 4-[4-(4-chloro-3-cyanophenoxymethyl)pyridin-2-yl]-2-methylbenzamide] the value was 7.00 to 7.60; for `Cc1cc(-c2cc(COc3cccc4c3CCC4=O)ccn2)ccc1C(N)=O` [Example 31, 4-(4-{[(1-oxo-2,3-dihydro-1H-inden-4-yl)oxy]methyl}pyridin-2-yl)-2-methylbenzamide], 6.00 to 7.00.
Regarding `COc1ccc(OCc2cncc(-c3ccc(C(N)=O)c(C)c3)c2)c(Cl)c1` [Example 99, 4-[5-(2-chloro-4-methoxyphenoxymethyl)pyridin-3-yl]-2-methylbenzamide], the pEC50 was less than 6.00.
Take `COc1ccc(OCc2ccnc(-c3ccc(C(N)=O)c(C)c3)c2)c(Cl)c1` [Example 22, 4-[4-(2-chloro-4-methoxyphenoxymethyl)pyridin-2-yl]-2-methylbenzamide]: the pEC50 is more than 7.60.
For `CSc1ccc(OCc2ccnc(-c3ccc(C(N)=O)c(C)c3)c2)cc1` [Example 37, 4-{4-[4-(methylsulfanyl)phenoxymethyl]pyridin-2-yl}-2-methyl benzamide] the value was 7.00 to 7.60.
The figure for `Cc1cc(-c2cc(COc3cccc(C)c3C)ccn2)ccc1C(N)=O` [Example 41, 4-[4-(2,3-dimethylphenoxymethyl)pyridin-2-yl]-2-methylbenzamide] is 6.00 to 7.00.
For `Cc1cc(-c2cc(COc3ccccc3C(F)(F)F)ccn2)ccc1C(N)=O` [Example 3, 4-{4-[2-(trifluoromethyl)phenoxymethyl]pyridin-2-yl}-2-methyl benzamide] the value was 6.00 to 7.00.
Consider `Cc1cc(-c2cc(COc3ccc4c(c3)CCO4)ccn2)ccc1C(N)=O` [Example 64, 4-{4-[(2,3-dihydro-1-benzofuran-5-yloxy)methyl]pyridin-2-yl}-2-methylbenzamide], for which the pEC50 was more than 7.60.
The figure for `COc1ccc(OCc2ccnc(-c3ccc(C(N)=O)c(C)c3)c2)cc1OC` [Example 17, 4-[4-(3,4-dimethoxyphenoxymethyl)pyridin-2-yl]-2-methylbenzamide] is 6.00 to 7.00.
For `Cc1cc(-c2cc(COc3ccc(C4CC4)c(F)c3)ccn2)ccc1C(N)=O` [Example 71, 4-[4-(4-cyclopropyl-3-fluorophenoxymethyl)pyridin-2-yl]-2-methylbenzamide] the value was more than 7.60.
For `COc1ccc(OCc2cncc(-c3ccc(C(N)=O)c(C)c3)c2)cc1OC` [Example 96, 4-[5-(3,4-dimethoxyphenoxymethyl)pyridin-3-yl]-2-methylbenzamide] the value was less than 6.00; for `Cc1cc(-c2cncc(COc3cc(F)cc(C#N)c3)c2)ccc1C(N)=O` [Example 92, 4-[5-(3-cyano-5-fluorophenoxymethyl)pyridin-3-yl]-2-methylbenzamide], less than 6.00; for `Cc1cc(-c2cc(COc3cccc(C(F)F)c3)ccn2)ccc1C(N)=O` [Example 67, 4-{4-[3-(difluoromethyl)phenoxymethyl]pyridin-2-yl}-2-methylbenzamide], more than 7.60.
With `CC(=O)c1ccc(OCc2cc(-c3ccc(C(N)=O)c(C)c3)ccn2)cc1` [Example 86, 4-[2-(4-acetylphenoxymethyl)pyridin-4-yl]-2-methylbenzamide hydrochloride], the pEC50 was more than 7.60.
